Laboratory results reported in patent publication US20070244153A1 (priority 2004, published 2007).

Tests used:
Phytophthora infestans = format: in vivo; conditions: 250 ppm spray, tomato seedling 4-leaf stage, 4th day after inoculation; untreated not less than 60%
[1] = system: Pseudoperonospora cubensis; assay: Controlling effect against cucumber downy mildew (spray on cucumber seedlings, 250 ppm); format: in vivo; conditions: 250 ppm spray, cucumber seedling 1-leaf stage, 7th day after inoculation; untreated 60 to 80%
Method: A solution of the compound in acetone was diluted with water to 250 ppm, and the solution was sprayed to the cucumber seedling (breed: Sagamihangbak, two per plastic pot having a diameter of 7.5 cm) at 1-leaf stage in an amount of 10 mL of the compound/pot. After air-drying, the pot was transferred to a moist chamber provided in the greenhouse, and inoculated by spray with a zoosporic suspension of Pseudoperonospora cubensis. On the 7th day after inoculation the infected area rate for the leaves was examined. Evaluation was carried out by the following criteria.
The infected area rate for untreated groups in the examination was 60 to 80%.

Plasmopara viticola = assay: Controlling effect against grape downy mildew (leaf disk immersion, 250 ppm); format: in vivo; conditions: grape leaf disk immersed 3 hours, 10th day after inoculation, untreated 60 to 70%
Method: The developed leaf of grape seedling (breed: Cabernet Sauvignon) grown in 1/2000 a pot was cut and prepared a leaf disk having a diameter of 32 mm. A solution of the compound in acetone was diluted with water to 250 ppm, and the leaf disk was immersed for 3 hours. The disk was taken from the agent solution, subjected to air-drying, and then inoculated by spray with a zoosporangia suspension of Plasmopara viticola. The test disk was incubated at 18° C. for 12 hours in a light-dark light cycle. On the 10th day after inoculation the infected area rate for the leaf disk was examined. Evaluation was carried out by the following criteria. The infected area rate for the untreated groups in the examination was 60 to 70%.

Pyricularia oryzae = format: in vivo; conditions: 250 ppm spray, rice plant 4-leaf stage, 7th to 10th days after inoculation; untreated not less than 60

SMILES | melting point | Effect: controlling effect against tomato late blight (infected area rate) (Phytophthora infestans) | Effect: controlling effect against cucumber downy mildew (infected area rate) [1] | Effect: controlling effect against grape downy mildew (infected area rate) (Plasmopara viticola) | Effect: controlling effect against rice blast disease (number of lesions per pot) (Pyricularia oryzae)
CC(C)[C@@H](CNC(=O)c1cc2ccccc2o1)NC(=O)C(C)(C)NC(=O)OC(C)(C)C | 140.5 °C |  |  |  | 
Cc1ccc(C(=O)NC[C@@H](NC(=O)Oc2ccccc2)C(C)C)cc1 [Comparative Compound, reference compound] |  | C (Infected area rate of not less than 50%) | C (the infected area rate of not less than 50%) | C (the infected area rate of not less than 50%) | A (The number of lesions of less than 5)
C#CC[C@H](NC(=O)OCC(C)C)C(=O)N[C@H](CNC(=O)c1ccc(C)cc1)C(C)C [Compound No. 76, N-[2-methyl-1-(S)-[[(4-methylbenzoyl)amino]methyl]propyl]2-(S)-[(2-methylpropyloxycarbonyl)amino]-4-pentynamide] | 215.1 °C | A (Infected area rate of less than 5%) |  |  | 
CC(C)OC(=O)N[C@H](C(=O)N[C@H](CNC(=O)c1ccccc1Cl)C(C)C)C(C)C [Compound No. 196, N-[1-(S)-[[(2-chlorobenzoyl)amino]methyl]-2-methylpropyl]3-methyl-2-(S)-[(1-methylethyloxycarbonyl)amino]butyramide] | 196.8 °C | A (Infected area rate of less than 5%) | B (the infected area rate of 5% to less than 50%) |  | 
CC(C)OC(=O)N[C@@H](C)C(=O)N[C@H](CNC(=O)c1cc2ccccc2o1)C(C)C [Compound No. 599, N-[1-(S)-[[(benzofuran-2-carbonyl)amino]methyl]-2-methylpropyl]2-(S)-[(1-methylethyloxycarbonyl)amino]propionamide] | 146.4 °C | A (Infected area rate of less than 5%) | A (the infected area rate of less than 5%) | A (the infected area rate of less than 5%) | 
CC(C)[C@@H](CNC(=O)c1cc2ccccc2o1)NC(=O)[C@H](C)NC(=O)OC(C)(C)C [Compound No. 601, N-[1-(S)-[[(benzofuran-2-carbonyl)amino]methyl]-2-methylpropyl]2-(S)-[(1,1-dimethylethyloxycarbonyl)amino]propionamide] | 163.1 °C | B (Infected area rate of 5% to less than 50%) | A (the infected area rate of less than 5%) | B (the infected area rate of 5% to less than 50%) | 
CC[C@H](C)[C@@H](CNC(=O)c1ccc2ccccc2n1)NC(=O)[C@@H](NC(=O)OC)C(C)C [Compound No. 698, N-[1-(S)-[[(quinoline-2-carbonyl)amino]methyl]-2-(S)-methylbutyl]2-(S)-(methyloxycarbonylamino)-3-methylbutyramide] | 174.6 °C | A (Infected area rate of less than 5%) | A (the infected area rate of less than 5%) | B (the infected area rate of 5% to less than 50%) | 
C=COC(=O)N[C@H](C(=O)N[C@H](CNC(=O)c1cc2ccccc2o1)C(C)C)C(C)C [Compound No. 782, N-[1-(S)-[[(benzofuran-2-carbonyl)amino]methyl]-2-methylpropyl]3-methyl-2-(S)-[(vinyloxycarbonyl)amino]butyramide] | 192.7 °C | A (Infected area rate of less than 5%) | A (the infected area rate of less than 5%) | A (the infected area rate of less than 5%) | 
CCSC(=O)N[C@H](C(=O)N[C@H](CNC(=O)c1cc2ccccc2o1)C(C)C)C(C)C [Compound No. 793, N-[1-(S)-[[(benzofuran-2-carbonyl)amino]methyl]-2-methylpropyl][3-methyl-2-(S)-(ethylthiocarbonylamino)]butyramide] |  | A (Infected area rate of less than 5%) | A (the infected area rate of less than 5%) | A (the infected area rate of less than 5%) | 
CC(C)OC(=O)N[C@H](C(=O)N[C@H](CNC(=O)c1cccc2onnc12)C(C)C)C(C)C [Compound No. 929, N-[1-(S)-[(benzoxadiazol-4-yl)carbonylaminomethyl]-2-methylpropyl]3-methyl-2-(S)-[(1-methylethyl)oxycarbonylamino]butyramide] | 242.9 °C | A (Infected area rate of less than 5%) | A (the infected area rate of less than 5%) | B (the infected area rate of 5% to less than 50%) | 
CC(C)OC(=O)N[C@H](C(=O)N[C@H](CNC(=O)c1cccc(Cl)n1)C(C)C)C(C)C [Compound No. 953, N-[1-(S)-[[(6-chloropyridine-2-carbonyl)amino]methyl]-2-methylpropyl]3-methyl-2-(S)-[(1-methylethyloxycarbonyl)amino]butyramide] | 204.9 °C | A (Infected area rate of less than 5%) | A (the infected area rate of less than 5%) | A (the infected area rate of less than 5%) | 
CC(C)COC(=O)N[C@H](C(=O)N[C@H](CNC(=O)c1cccs1)C(C)C)C(C)C [Compound No. 1020, N-[1-(S)-[[(thiophene-2-carbonyl)amino]methyl]-2-methylpropyl]3-methyl-2-(S)-[(2-methylpropyloxycarbonyl)amino]butyramide] | 204.9 °C | B (Infected area rate of 5% to less than 50%) | B (the infected area rate of 5% to less than 50%) |  | 
CCC[C@H](NC(=O)OC(C)(C)C)C(=O)N[C@H](CNC(=O)c1ccc(C)cc1)C(C)C [compound 40, N-[2-methyl-1-(S)-[[(4-methylbenzoyl)amino]methyl]propyl]2-(S)-[(1,1-dimethylethyloxycarbonyl)amino]valeramide] |  | A (Infected area rate of less than 5%) | A (the infected area rate of less than 5%) | A (the infected area rate of less than 5%) | 
